Results published in patent US12180187B2, “1-phenyl-5-azinylpyrazolyl-3-oxyalkyl acids and their use for controlling unwanted plant growth” (BAYER AKTIENGESELLSCHAFT, priority 2019, dated 2024).
“And” between values parts separate entries of the source, which are not always exact repeats. Identical values can stand only once.

How the values were obtained:
VIOTR [1] = experiment: Pre-emergence action at 320 g/ha against VIOTR; type: in vivo, Viola tricolor; conditions: dosage 320 g/ha
Outline: (§1)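 Percent herbicidal activity was assessed by eye roughly three weeks post-application, comparing with untreated plants. Treatment consisted of applying formulated compound in water plus 0.5% additive to covering soil at 600 l/ha before emergence.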

PHBPU = experiment: Post-emergence action at 320 g/ha against PHBPU; type: in vivo; conditions: visual rating about 3 weeks after treatment vs untreated controls
Outline: (§2)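 Herbicidal effect is scored by eye about 3 weeks after a foliar spray and expressed as percent activity, with untreated plants as 0% and dead plants as 100%. Treatment is applied at the one-leaf stage of greenhouse-grown, soil-sown plants, at a water rate of 600 l/ha containing 0.5% additive.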

VIOTR [2] = experiment: Post-emergence action at 320 g/ha against VIOTR; type: in vivo, Viola tricolor; conditions: visual rating about 3 weeks after treatment vs untreated controls
Outline: as §2

MATIN [3] = experiment: Pre-emergence action at 320 g/ha against MATIN; type: in vivo, Tripleurospermum inodorum (Matricaria inodora); conditions: visual scoring after about 3 weeks vs untreated controls
Outline: as §1

ECHCG = experiment: Post-emergence action against ECHCG, 1.28 kg/ha; type: in vivo, Echinochloa crus-galli; conditions: dosage 1280 g/ha, visual rating about 3 weeks after treatment vs untreated controls
Outline: (§3)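 Spray at one-leaf stage with WP/EC + 0.5% additive, 600 L water/ha. Greenhouse, optimum conditions, ~3 wk. Visual % control vs untreated; 0 = no effect, 100 = dead.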

ABUTH [4] = experiment: Post-emergence action at 320 g/ha against ABUTH; type: in vivo, Abutilon theophrasti; conditions: visual rating about 3 weeks after treatment vs untreated controls
Outline: as §2

ALOMY [5] = experiment: Pre-emergence action against ALOMY, 1280 g/ha; type: in vivo, Alopecurus myosuroides; conditions: visual scoring after about 3 weeks vs untreated controls, 100% = plants have died, 0% = like control plants
Outline: (§4)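 Weed seeds sown in sandy loam in pots, covered with soil; compound as WP or EC applied to soil surface as aqueous suspension/emulsion with 0.5% additive at 600 L/ha water. Greenhouse, good growth conditions; visual % damage vs untreated controls after about 3 weeks (100% = plants dead, 0% = like control).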

LOLRI [6] = experiment: Post-emergence action against LOLRI, 1.28 kg/ha; type: in vivo, Lolium rigidum; conditions: dosage 1280 g/ha, visual rating about 3 weeks after treatment vs untreated controls
Outline: as §3

ALOMY [7] = experiment: Post-emergence action against ALOMY, 320 g/ha; type: in vivo, Alopecurus myosuroides; conditions: dosage 320 g/ha, visual rating about 3 weeks after treatment vs untreated controls (100% = plants died)
Outline: as §2

SETVI = experiment: Post-emergence action at 320 g/ha against SETVI; type: in vivo, Setaria viridis; conditions: visual rating about 3 weeks after treatment vs untreated controls
Outline: as §2

ABUTH [8] = experiment: Post-emergence action against ABUTH, 1.28 kg/ha; type: in vivo, Abutilon theophrasti; conditions: dosage 1280 g/ha, visual rating about 3 weeks after treatment vs untreated controls (100% = plants died)
Outline: as §3

ECHGC = experiment: Pre-emergence action at 320 g/ha against ECHGC; type: in vivo, Echinochloa crus-galli; conditions: visual scoring after about 3 weeks vs untreated controls
Outline: as §1

DIGSA = experiment: Post-emergence action against DIGSA, 1.28 kg/ha; type: in vivo, Digitaria sanguinalis; conditions: dosage 1280 g/ha, visual rating about 3 weeks after treatment vs untreated controls
Outline: as §3

VERPE = experiment: Pre-emergence action against VERPE, 1280 g/ha; type: in vivo, Veronica persica; conditions: scored visually after about 3 weeks vs untreated controls (100% = plants have died)
Outline: as §4

MATIN [9] = experiment: Post-emergence action against MATIN, 1.28 kg/ha; type: in vivo, Tripleurospermum inodorum (Matricaria inodora); conditions: dosage 1280 g/ha, visual rating about 3 weeks after treatment vs untreated controls (100% = plants died)
Outline: as §3

LOLRI [10] = experiment: Pre-emergence action at 320 g/ha against LOLRI; type: in vivo, Lolium rigidum; conditions: visual scoring after about 3 weeks vs untreated controls
Outline: as §1

SMILES	Pre-emergence action against VIOTR in % (VIOTR [1]) [%]	Post-emergence action against PHBPU in % (PHBPU)	Post-emergence action against VIOTR in % (VIOTR [2]) [%]	Pre-emergence action against MATIN in % (MATIN [3]) [%]	Post-emergence action against ECHCG (ECHCG) [%]	Post-emergence action against ABUTH in % (ABUTH [4]) [%]	Pre-emergence action against ALOMY (ALOMY [5])	Post-emergence action against LOLRI (LOLRI [6]) [%]	Post-emergence action against ALOMY (ALOMY [7]) [%]	Post-emergence action against SETVI in % (SETVI)	Post-emergence action against ABUTH (ABUTH [8]) [%]	Pre-emergence action against ECHGC in % (ECHGC) [%]	Post-emergence action against DIGSA (DIGSA) [%]	Pre-emergence action against VERPE (VERPE) [%]	Post-emergence action against MATIN (MATIN [9])	Pre-emergence action against LOLRI in % (LOLRI [10]) [%]	other results
COC(=O)[C@@H](C)Oc1nn(-c2ccccc2)c(-c2cncnc2)c1Br [VI-013]	100	80%	90	90	100	80	90%	90	80	90%	90	90	90	100	100%	90	–
COC(=O)[C@@H](C)Oc1nn(-c2ccccc2)c(-c2cccnc2)c1Br [VII-008]	100	80%	90	100	100	90	100%	100	100	100%	90	80	–	100	90%	100	–
CCOC(=O)COc1nn(-c2ccccc2F)c(-c2ccc(F)nc2)c1Br [VII-012, Ethyl {[4-bromo-1-(2-fluorophenyl)-5-(6-fluoropyridin-3-yl)-1H-pyrazol-3-yl]oxy}acetate]	–	90% and 80%	–	–	–	80	100% and 90%	100	90	100% and 80%	100	100	100	–	100% and 90%	–	pest or weed control at 320 g/ha (VIOTR [1]; Viola tricolor, 504 h): 100%; pest or weed control at 320 g/ha (VIOTR [2]; Viola tricolor, 504 h): 90%; pest or weed control at 320 g/ha (MATIN [3]; Tripleurospermum inodorum, 504 h): 90%; pest or weed control at 1280 g/ha (ECHCG; Echinochloa crus-galli, 504 h): 100%; pest or weed control at 1280 g/ha (VERPE; Veronica persica, 504 h): 100%; pest or weed control at 320 g/ha (LOLRI [10]; Lolium rigidum, 504 h): 90%
CCOC(=O)COc1nn(-c2ccccc2F)c(-c2cncc(F)c2)c1Br [VII-015]	100	90%	90	100	100	90	90%	100	90	100%	90	90	100	100	100%	90	–
CCOC(=O)COc1nn(-c2ccc(F)cc2F)c(-c2ccc(F)nc2)c1Cl [VII-016]	90	90%	80	80	90	90	–	90	90	80%	90	100	–	90	100%	100	–
COC(=O)COc1nn(-c2ccccc2)c(-c2ccc(F)nc2)c1Br [VII-018]	90	90%	90	90	90	80	100%	90	90	80%	90	90	100	100	90%	100	–
CCOC(=O)C(C)Oc1nn(-c2ccccc2F)c(-c2ccc(F)nc2)c1Br (stereo not drawn) [VII-019]	100	90%	90	100	100	80	90%	100	100	80%	–	100	100	100	–	100	–
COC(=O)COc1nn(-c2ccc(F)cc2)c(-c2cccnc2)c1Br [VII-028]	100	90%	80	80	90	80	–	90	80	80%	90	80	–	90	90%	–	–
COC(=O)C(C)Oc1nn(-c2ccccc2)c(-c2cccnc2)c1Cl (stereo not drawn) [VII-032]	100	90%	90	90	100	80	–	100	90	80%	90	90	90	100	90%	100	–
COC(=O)COc1nn(-c2ccccc2F)c(-c2ccc(F)nc2)c1F [VII-040]	100	90%	90	100	100	90	100%	–	100	100%	90	90	100	100	90%	100	–
